Measurements taken from PMC3728024, “Antidiabetic and Antioxidant Effects and Phytochemicals of Mulberry Fruit (Morus alba L.) Polyphenol Enhanced Extract” (PLoS ONE, 2013).
In brackets after ≈: the same amount, converted by molar mass. Several values for one entry are separate records, joined by “and”; a condition that tells them apart may be missing. Identical values can stand only once. Like-named read-outs stand apart in the source and are kept apart here.

Key:
[1] = biological target: T1, α-Glucosidase type I (EC 3.2.1.20) (Saccharomyces cerevisiae, UniProt P53341); experiment: biochemical
T1 construct: purchased Sigma-Aldrich Chemical Co. (St. Louis, MO)
T1 sequence (P53341 whole entry): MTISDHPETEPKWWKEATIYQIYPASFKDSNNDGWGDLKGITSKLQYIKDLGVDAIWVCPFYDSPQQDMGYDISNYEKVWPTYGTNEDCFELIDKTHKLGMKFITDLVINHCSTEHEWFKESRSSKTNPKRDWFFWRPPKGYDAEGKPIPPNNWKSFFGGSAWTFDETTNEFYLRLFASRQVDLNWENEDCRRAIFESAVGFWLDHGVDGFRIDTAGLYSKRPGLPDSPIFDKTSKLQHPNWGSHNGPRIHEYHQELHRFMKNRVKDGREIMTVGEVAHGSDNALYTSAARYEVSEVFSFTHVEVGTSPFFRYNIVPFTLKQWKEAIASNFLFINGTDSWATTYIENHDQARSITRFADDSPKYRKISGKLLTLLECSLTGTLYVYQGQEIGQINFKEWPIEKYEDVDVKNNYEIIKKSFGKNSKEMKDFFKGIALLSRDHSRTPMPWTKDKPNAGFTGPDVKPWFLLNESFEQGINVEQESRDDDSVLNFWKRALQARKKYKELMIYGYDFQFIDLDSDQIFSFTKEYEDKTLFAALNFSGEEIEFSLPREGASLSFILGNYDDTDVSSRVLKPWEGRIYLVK
Text: α-Glucosidase type I (EC 3.2.1.20) from baker's yeast, p-nitrophenyl α-D-glucopyranoside (PNPG), streptozotocin (STZ), were purchased from Sigma-Aldrich Chemical Co. (St. Louis, MO). […] Phenazine methosulfate was purchased from J&K Chemical Ltd. (Shanghai, China). 2,2-Diphenyl-1-picrylhdrazyl (DPPH) was product of Aladdin Chemistry Co. Ltd. (Shanghai, China). Silica gel (200–300 mesh, Anhui Liangchen Silicon Material Co. Ltd. Anhui, China), Sephadex LH-20 (Pharmacia Biothech AB, Uppsala, Sweden), and ODS (40–60 μm, Merck KGaA, Darastadt, Germany) were used for column chromatography. HPLC-grade methanol was purchased from Jiangsu Hanbang Science and Technology Co. Ltd. (Nanjing, China). All other analytical chemicals and reagents were purchased from Sinopharm Chemical Regent Co. Ltd. (Shanghai, China).
The α-glucosidase inhibitory studies were performed spectrophotometrically on 96-well microplate reader according to a reported method. […] The assay was performed in triplicate.

[2] = Superoxide anion radical-scavenging assay (NADH/PMS system); conditions: mean ± SD, n = 3; for EC50: isolated compounds
Text: Superoxide radical were generated by the NADH/PMS system according to a reported protocol. Gallic acid was used as positive control.

[3] = DPPH radical-scavenging assay of the isolated compounds; conditions: mean ± SD, n = 3
Method: (§1) The DPPH radical-scavenging assay was performed according to a previously described method. All tests were performed in triplicate. Ascorbic acid and gallic acid were used as positive controls.

[4] = tested on: STZ-induced diabetic mice; experiment: Fasting blood glucose of STZ-induced diabetic mice; type: in vivo; conditions: 300 mg/kg p.o. two times a day, n = 8
Method: The mice were given 5% glucose solution orally in order to stave off the hypoglycemia during the first day after the injection of STZ [24]. In testing the FBG of the mice, a standard protocol developed by the American National Institute of Health was carried out. […] The FBG was measured using the Accu-Check Active Blood Glucose Meter (Roche Diagnostics, Mannheim, Germany). […] Sample suspended in distilled water containing 0.3% CMC-Na was administered p.o. two times a day for 2 weeks. FBG of the diabetic mice was determined on the day 7 and 14 as described before. On the day 14, the mice were sacrificed under diethyl ether anesthesia after the FBG determination. Blood was collected from the ophthalmic vein and allowed to clot at room temperature for 30 min. The serum was separate by centrifuging at 4000 rpm for 10 min with a refrigerated centrifuge. Liver and kidney were excised. Samples were stored at −20°C until used.

[5] = tested on: STZ-induced diabetic mice; experiment: SOD activity in serum, kidney and liver of STZ-induced diabetic mice; type: in vivo; conditions: 300 mg/kg, 2 weeks
Method: (§2) Total 32 hyperglycemic mice were divided into four groups according to their FBG (8 mice per group): control (distilled water), MFE 100 (100 mg/kg BW), MFE 200 (200 mg/kg BW), and metformin (300 mg/kg BW). Sample suspended in distilled water containing 0.3% CMC-Na was administered p.o. two times a day for 2 weeks. FBG of the diabetic mice was determined on the day 7 and 14 as described before. On the day 14, the mice were sacrificed under diethyl ether anesthesia after the FBG determination. Blood was collected from the ophthalmic vein and allowed to clot at room temperature for 30 min. The serum was separate by centrifuging at 4000 rpm for 10 min with a refrigerated centrifuge. Liver and kidney were excised. Samples were stored at −20°C until used.
(§3) 10% solution of tissue homogenate was prepared as follows. Pieces of liver or kidney were homogenized in 9 volumes (w/v) ice-cold saline and centrifuged at 4000 rpm for 8 min. The supernatants were separated and stored at 4°C for analysis. Protein content of tissue homogenate was determined according to the Bradford method. Bovine serum albumin was used as standard. The superoxide dismutase (SOD), catalase (CAT) and glutathione peroxidase (GSH-Px) activities in liver and kidney tissue, the SOD and CAT activities in serum were determined using the respective commercial kits obtained from Nanjing Jiancheng Bioengineering Institute (Nanjing, China). SOD activity was determined by the nitrite method. SOD activity was expressed as units/mg protein or units/mL serum. The activity of CAT was measured using colorimetric method based on the decomposition of hydrogen peroxide (H2O2) by CAT. The enzyme catalysis was stopped by adding the solution of ammonium molybdate which can react with the rest H2O2 and give a yellow product. The product can be measured at 405 nm by its absorbance. The CAT activities of tissue or serum were presented as units/mg protein or units/mL serum respectively. GSH-Px activity was also measured according to a colorimetric method developed by Sedlak. […]

[6] = tested on: STZ-induced diabetic mice; experiment: GSH-Px activity in kidney and liver of STZ-induced diabetic mice; type: in vivo; conditions: 300 mg/kg, 2 weeks
Method: as §2, with “Samples were stored at −20°C until used.” left out
10% solution of tissue homogenate was prepared as follows. […] Protein content of tissue homogenate was determined according to the Bradford method. […] The superoxide dismutase (SOD), catalase (CAT) and glutathione peroxidase (GSH-Px) activities in liver and kidney tissue, the SOD and CAT activities in serum were determined using the respective commercial kits obtained from Nanjing Jiancheng Bioengineering Institute (Nanjing, China). SOD activity was determined by the nitrite method. SOD activity was expressed as units/mg protein or units/mL serum. The activity of CAT was measured using colorimetric method based on the decomposition of hydrogen peroxide (H2O2) by CAT. […]

[7] = tested on: STZ-induced diabetic mice; experiment: CAT activity in serum, kidney and liver of STZ-induced diabetic mice; type: in vivo; conditions: 300 mg/kg, 2 weeks
Method: as §2, §3

[8] = tested on: STZ-induced diabetic mice; experiment: Glycosylated serum protein (GSP) of STZ-induced diabetic mice, NBT colorimetric method; type: in vivo; conditions: 300 mg/kg p.o. two times a day, n = 8
Method: as §2
GSP level was measured according to the nitroblue tetrazolium (NBT) colorimetric method using commercial kits purchased from Nanjing Jiancheng Bioengineering Institute (Nanjing, China). This method based on the ability of the ketoamine group of glycated proteins to reduce tetrazolium salt under alkaline conditions. Fructosamine was used as standard.

[9] = DPPH radical-scavenging assay of the extracts; conditions: DPPH used was 2,2-Di(4-tert-octylphenyl)-1-picrylhydrazyl, mean ± SD, n = 3
Method: as §1

[10] = isolated compounds, mean ± SD, n = 3, read-out: IC50 α-glucosidase

Row | IC50 [1, 10] [µM] | EC50 [2] [µM] | EC50 [3] [µM] | Structure (SMILES) | other results
1 | 933 ± 98.8 | 58.3 ± 2.39 | 6.46 ± 0.39 | O=C1c2c(O)cc(O[C@@H]3O[C@H](CO)[C@@H](O)[C@H](O)[C@H]3O)cc2O[C@H](c2ccc(O)cc2)[C@H]1O [Compound 11, dihydrokaempferol 7-O-β-D-glucopyranoside] | 
2 | 310 ± 12.7 | 45.1 ± 1.66 | 11.8 ± 1.04 | CC(=O)OC[C@H]1O[C@@H](Oc2c(-c3ccc(O)c(O)c3)oc3cc(O)cc(O)c3c2=O)[C@H](O)[C@@H](O)[C@@H]1O [Compound 3, quercetin 3-O-(6′′-O-acetyl)-β-D-glucopyranoside] | 
3 | 50 ± 3.18 | 191 ± 15 | > 500 | CC(C)=CCc1c(O)ccc(C(=O)/C=C/c2ccc(O)cc2O)c1O [Compound 13, 2,4,2′,4′,-tetrahydroxy-3′-(3-methyl-2-butenyl)-chalcone] | 
4 | 166 ± 11.7 | 30.6 ± 0.99 | 9.76 ± 0.61 | C[C@@H]1O[C@@H](OC[C@H]2O[C@@H](Oc3c(-c4ccc(O)c(O)c4)oc4cc(O)cc(O)c4c3=O)[C@H](O)[C@@H](O)[C@@H]2O)[C@H](O)[C@H](O)[C@H]1O [Compound 4, quercetin 3-O-β-D-rutinoside] | 
5 | 165 ± 11.6 |  | 7.89 ± 0.5 | O=c1c(O[C@@H]2O[C@H](CO)[C@@H](O)[C@H](O)[C@H]2O)c(-c2ccc(O)c(O)c2)oc2cc(O)cc(O)c12 [Compound 2, quercetin-3-O-β-D-glucopyranoside] | 
6 |  | 27.9 ± 0.59 | 11.9 ± 0.72 | O=c1c(O)c(-c2ccc(O)c(O)c2)oc2cc(O)cc(O)c12 [Compound 1, quercetin] | 
7 | 600 ± 45.9 | 50.7 ± 6.7 | 9.18 ± 0.97 | O=c1c(O[C@@H]2O[C@H](CO)[C@@H](O)[C@H](O)[C@H]2O)c(-c2ccc(O)c(O)c2)oc2cc(O[C@@H]3O[C@H](CO)[C@@H](O)[C@H](O)[C@H]3O)cc(O)c12 [Compound 6, quercetin 3,7-di-O-β-D-glucopyranoside] | 
8 |  | 122 ± 5.49 | 301 ± 13.8 | O=c1c(O[C@@H]2O[C@H](CO)[C@@H](O)[C@H](O)[C@H]2O)c(-c2ccc(O)cc2)oc2cc(O)cc(O)c12 [Compound 7, kaempferol 3-O-β-D-glucopyranoside] | 
9 | 728 ± 67.7 | 194 ± 8.12 | 222 ± 13.8 | O=C1C[C@@H](c2ccc(O)c(O[C@@H]3O[C@H](CO)[C@@H](O)[C@H](O)[C@H]3O)c2)Oc2cc(O)cc(O)c21 [Compound 10, 5,7,4′-trihydroxy-flavanone-3′-O-β-D-glucopyranoside] | 

Second part, the compound before the results:

Row | Structure (SMILES) | IC50 [1, 10] [µM] | EC50 [2] [µM] | EC50 [3] [µM] | other results
10 | O=C1O[C@H]([C@@H](O)CO)C(O)=C1O [Ascorbic acid, reference compound] |  | > 500 | 33.5 ± 1.2 | 
11 | C[C@@H]1O[C@@H](OC[C@H]2O[C@@H](Oc3c(-c4ccc(O)cc4)oc4cc(O)cc(O)c4c3=O)[C@H](O)[C@@H](O)[C@@H]2O)[C@H](O)[C@H](O)[C@H]1O [Compound 8, kaempferol 3-O-β-D-rutinoside] |  | 196 ± 7.98 | 152 ± 5.9 | IC50 [1]: 178.3 ± 0.35 µM
12 | O=C1C[C@@H](c2ccc(O[C@@H]3O[C@H](CO)[C@@H](O)[C@H](O)[C@H]3O)c(O)c2)Oc2cc(O)cc(O)c21 [Compound 9, 5,7,3′-trihydroxy-flavanone-4′-O-β-D-glucopyranoside] |  | 90.7 ± 8.28 | 79.4 ± 4.74 | IC50 [1]: 409 ± 38.7 µM
13 | O=c1c(O)c(-c2ccc(O)c(O)c2)oc2cc(O[C@@H]3O[C@H](CO)[C@@H](O)[C@H](O)[C@H]3O)cc(O)c12 [Compound 5, quercetin 7-O-β-D-glucopyranoside] |  | 24.6 ± 1.67 | 9.8 ± 0.53 | IC50 [1]: 370 ± 31.2 µM
14 | Oc1ccccc1O [Compound 25, pyrocatechol] |  | 45.8 ± 2.97 | 6.74 ± 0.28 | 
15 | CCOC(=O)c1ccc(O)c(O)c1 [Compound 21, protocatechuic acid ethyl ester] |  | 606 ± 25.8 | 9.04 ± 0.21 | 
16 | COC(=O)Cc1c(O)cc(O)cc1OC(=O)c1ccc(O)c(O)c1 [Compound 16, 2-O-(3,4-dihydroxybenzoyl)-2,4,6-trihydroxyphenylmethylacetate] |  | 37.5 ± 2.62 | 10.8 ± 0.94 | IC50 [1]: 31.7 ± 3.38 µM
17 | O=C(O)Cc1c(O)cc(O)cc1OC(=O)c1ccc(O)c(O)c1 [Compound 15, 2-O-(3,4-dihydroxybenzoyl)-2,4,6-trihydroxyphenylacetic acid] |  | 15.2 ± 0.7 | 7.87 ± 0.73 | IC50 [1]: 116 ± 6.75 µM
18 | CN(C)C(=N)N=C(N)N [Metformin] |  |  |  | FBG day 0 ([4]; day 0): 25.66 ± 5.95 mmol/L; FBG day 7 ([4]; day 7): 15.44±4.57c mmol/L; FBG day 14 ([4]; day 14): 17.38±5.31c mmol/L; Kidney SOD ([5]; kidney): 246.56±24.80b units/mg protein; Liver SOD ([5]; liver): 145.03±13.79 units/mg protein; Serum SOD ([5]; serum): 251.29±28.78b units/mL serum; Kidney GSH-Px ([6]; kidney): 240.36±40.31; Liver GSH-Px ([6]; liver): 275.78±21.02; Kidney CAT ([7]; kidney): 21.85±3.90b units/mg protein; Liver CAT ([7]; liver): 27.07±2.74 units/mg protein; Serum CAT ([7]; serum): 50.53±17.87c units/mL serum; GSP day 14 [8]: 6.06±0.47 mmol/L and 6.06±0.47b mmol/L
19 | COC(=O)c1ccc(O)c(O)c1 [Compound 20, protocatechuic acid methyl ester] |  | 214 ± 16.9 | 10.7 ± 0.34 | 
20 | CC(C)=CCc1c(O)ccc(C(=O)/C=C/c2ccc(O)cc2)c1O [Compound 12, isobavachalcone] | 67.3 ± 5.51 | 150 ± 9.1 | > 500 | 
21 | O=C(O)c1cc(O)c(O)c(O)c1 [Gallic acid, reference compound] |  | 10.1 ± 0.39 | 5.18 ± 0.34 | EC50 DPPH [9]: 4.95 ± 0.24 µg/mL (≈ 29.1 µM); EC50 Superoxide anion ([2]; extracts): 5.21 ± 0.27 µg/mL (≈ 30.6 µM)
22 | C=C(C)C1Cc2c(ccc(C(=O)/C=C/c3ccc(O)cc3)c2O)O1 (stereo not shown) [Compound 14] |  | 175 ± 9.72 | > 500 | IC50 [1]: 225 ± 4.79 µM
23 | O=C(O)c1ccc(O)c(O)c1 [Compound 18, protocatechuic acid] |  | 101 ± 8.27 | 11.9 ± 0.69 | 
24 | OCCc1ccc(O)cc1 [Compound 24, 2-(4-hydroxyphenyl)ethanol] |  | 417 ± 23.9 | > 500 | 
